Non-standard residues stand in square brackets, D forms with d. Residues, ends and D or L forms follow the SMILES beside them. No end group written: not given here.
Columns and labels:
[1] = tested on: defibrinated rabbit red blood cells; assay: hemolysis assay; assay type: cell-based; conditions: mean ± S.D., SD
Protocol: A single colony of S. mitis ATCC 49456 was grown for 16 h at 37 °C with 5% CO2 in 5 mL THY media (pH 7.3). Overnight cultures were then diluted 1:10 in fresh THY media. Samples were prepared in clear bottom 96 -well microtiter plates. Experimental samples were prepared by adding 196 µL of the 1:10 diluted culture and 2 µL of a 1 mM S. mitis-CSP-2 and the lead S. mitis-CSP-2 analogs (lead activator, S. mitis-CSP-2-n11, and lead inhibitor, S. mitis-CSP-2-E1Af10r16), or 196 µL of fresh THY media and 2 µL of a 1 mM S. mitis-CSP-2/ S. mitis-CSP-2 analog stock.
Two µL of DMSO was added to each well. A positive control was prepared by adding 2 µL of a 1% Triton X solution and 2 µL of DMSO in 196 µL THY media, and negative controls were prepared by adding 4 µL DMSO in either 196 µL 1:10 diluted culture or 196 µL THY media. The 96-well microtiter plate was then incubated for 2 h at 37 °C with 5% CO 2, after which the optical density at 600 nm (OD600) was recorded and hemolysis was assessed. A 1 mL portion of defibrinated rabbit red blood cells ( VWR International) was aliquoted into a sterile 1.5 mL microcentrifuge tube, and centrifuged at 2,000 rpm for 2 min. Following centrifugation, the top layer was aliquoted off, and red blood cells were gently washed with sterile1 mL 1X PBS. This process was repeated for a total of three times, until following centrifugation the top layer was mostly clear. Washed red blood cells were resuspended in sterile 1 mL 1X PBS solution, and a 15 µL aliquot was added to each well of the 96 -well microtiter plate. The plate was then incubated for 30 min at 37 °C. Following incubation, the plate was centrifuged for 4 min at 4 °C at 1600 rpm .
Experimental wells were then diluted 1:5 in distilled water to prevent saturation of the detector by the positive control. The absorbance at 420 nm (OD420) was then measured for each well.
Experiments were performed in triplicate on three separate days. Data are presented as the percent hemolysis relative to the .01% Triton X positive control. Results are expressed as the mean +/ - the standard deviation of three independent experiments. […]

[2] = tested on: pneumococcus ComD2 receptor; conditions: cited from earlier work
Text: (§1) Table 5 EC50 or IC50 values of select Streptococcus mitis-CSP-2–based pneumococcal QS modulators against the pneumococcus ComD1 and ComD2 and the S. mitis ComD-2 receptors ^a | column: Streptococcus pneumoniae ^b / ComD2 / EC50 or IC50∗ (nM) || In our previous work, we utilized the S. mitis-CSP-2 scaffold to develop analogs capable of modulating the two pneumococcal ComD receptors at low nanomolar concentrations ([2]). We wanted to evaluate whether the optimization of the S. mitis-CSP-2 scaffold to the pneumococcus ComD receptors affected the ability of the modified analogs to interact with the S. mitis ComD-2 receptor.

[3] = tested on: pneumococcus ComD1 receptor; conditions: cited from earlier work
Text: as §1, with “/ ComD1” for “/ ComD2”

[4] = biological target: S. mitis ComD-2 receptor; assay: luminescence reporter competitive inhibition assay (comX expression); assay type: cell-based, Streptococcus mitis; conditions: same reporter strain; competition against 1 μM native S. mitis-CSP-2; 30 min at 37 °C; triplicate on three separate days
Protocol: As a positive control, 2 μl of S. mitis-CSP-2 and 2 μl of DMSO were added to the same well in triplicate. As a negative control, 4 μl of DMSO was added in triplicate. Then, 2 μl of 15 mg/ml D-luciferin in distilled water was added to each experimental or control well, after which 194 μl of bacteria was added, and the plate was incubated for 30 min at 37 °C. Following incubation, the A600 and luminescence of each experimental well were measured. Results were reported as percent activation, which is the ratio between the luminescence (presented as relative luminescence units, RLU/A600) of the analog and that of the positive control. […] GraphPad Prism was used to calculate the IC50 values, which are the concentration of inhibitor where the response (or binding) is reduced by half. Experiments were performed in triplicate on three separate days.
Antagonism assays were performed at 10 μM concentration of peptides against 1 µM concentration of S. mitis-CSP-2. S. mitis-CSP-2 (1 µM) was used as the positive control (100%) while DMSO as the negative control (0%). For all figures, comX expression is presented as relative luminescence units (RLU) divided by measured cultural optical density (OD). Percent (%) ComD activation was measured by normalizing the RLU/OD value obtained for each peptide to that of the native S. mitis-CSP-2. The results are averages from three replicates and representative of three independent experiments. Error bars represent the standard error of the mean of nine values.
Figure S-8. Primary antagonism screening assay data for t he S. mitis-CSP-2 alanine scan and D-amino acid […]
determine its IC50 value.
Figure S-9. Primary antagonism screening assay data for t he S. mitis-CSP-2 truncated analogs . S. mitis- […]

[5] = peptide alone with S. mitis ATCC 49456 culture

CC[C@H](C)[C@H](NC(=O)[C@H](C)N)C(=O)N[C@@H](CCCNC(=N)N)C(=O)N[C@@H](CCC(N)=O)C(=O)N[C@H](C(=O)N[C@@H](Cc1c[nH]cn1)C(=O)N[C@@H](CC(N)=O)C(=O)N[C@H](C(=O)N[C@@H](Cc1ccccc1)C(=O)N[C@H](Cc1ccccc1)C(=O)N[C@@H](CC(N)=O)C(=O)N[C@@H](Cc1ccccc1)C(=O)N[C@@H](Cc1ccccc1)C(=O)N[C@@H](CCCCN)C(=O)N[C@@H](CCCNC(=N)N)C(=O)N[C@H](CCCNC(=N)N)C(=O)O)[C@@H](C)CC)[C@@H](C)O [S. mitis-CSP-2-E1Af10r16] (H-AIRQTHNIF[dF]NFFKR[dR]-OH)
hemolysis relative to Triton X positive control ([1]; inhibitor together with S. mitis-CSP-2, with S. mitis ATCC 49456 culture): -3.1% ±16%
hemolysis relative to Triton X positive control ([1]; inhibitor together with S. mitis-CSP-2 in THY media): -2.3% ±7.0%
hemolysis relative to Triton X positive control [1, 5]: -6.9% ±19%

CC(C)(C)CC(C)(C)c1ccc(OCCO)cc1 [Triton X, reference compound]
hemolysis, positive control ([1]; 0.01% Triton X in THY media): 100% ± 15%

EIRQTHNIFFNFFKRR [S. mitis-CSP-2, reference compound]
hemolysis relative to Triton X positive control [1, 5]: -9.6% ±24%

AIRQTHNIFFFLFKRR [S. mitis-CSP-2-E1AN11FF12L]
inhibitory activity against S. pneumoniae ComD2 receptor [2]: no inhibitory activity
inhibitory activity against S. pneumoniae ComD1 receptor [3]: no inhibitory activity
IC50 [4]: > 1000 nM

CC[C@H](C)[C@H](NC(=O)[C@H](CC(N)=O)NC(=O)[C@H](Cc1c[nH]cn1)NC(=O)[C@@H](NC(=O)[C@H](CCC(N)=O)NC(=O)[C@H](CCCNC(=N)N)NC(=O)[C@@H](NC(=O)[C@@H](N)CCC(=O)O)[C@@H](C)CC)[C@@H](C)O)C(=O)N[C@@H](Cc1ccccc1)C(=O)N[C@@H](Cc1ccccc1)C(=O)N[C@H](CC(N)=O)C(=O)N[C@@H](Cc1ccccc1)C(=O)N[C@@H](Cc1ccccc1)C(=O)N[C@@H](CCCCN)C(=O)N[C@@H](CCCNC(=N)N)C(=O)N[C@@H](CCCNC(=N)N)C(=O)O [S. mitis-CSP-2-n11] (H-EIRQTHNIFF[dN]FFKRR-OH)
hemolysis relative to Triton X positive control [1, 5]: -9.8% ±30%

Reference: article PMC10714334, “Developing multispecies quorum-sensing modulators based on the Streptococcus mitis competence-stimulating peptide” (The Journal of Biological Chemistry, 2023)
